From patent US20240158446A1, “CYCLIC COMPOUND HAVING SELECTIVE INHIBITORY ACTION ON KRAS OVER HRAS AND NRAS” (CHUGAI SEIYAKU KABUSHIKI KAISHA, priority 2021, published 2024)
*1 amine or outer side, *2 acyl side, *3 side chain or, on linkers, in order; H or OH if unused. Where a SMILES comes first, the peptide text is derived from it. Bridges are numbered along the chain shown (N, C = ends). [ ]: non-standard residue; d: D form. The star is where a group is joined. hPhe(3-Cl-4-CF3) = N[C@@H](CCc1ccc(C(F)(F)F)c(Cl)c1)C(=O)O; X52 = CCCN([C@@H](Cc1ccc(OC(F)(F)F)cc1)C(=O)[*:2])[*:1]; X15 = Cc1ccc(C[C@@H](C(=O)[*:2])N(CCC(C)C)[*:1])cc1; X42 = Cc1ccc(C[C@@H](C(=O)[*:2])N(CC2CCC2)[*:1])cc1; X10 = C=CCN([C@@H](Cc1ccc(C)cc1)C(=O)[*:2])[*:1]; X53 = C#CCN([C@@H](Cc1ccc(C)cc1)C(=O)[*:2])[*:1]; NMeGly(cPent) = CN[C@H](C(=O)O)C1CCCC1; NMeD = CN[C@@H](CC(=O)O)C(=O)O; NMeL = CN[C@@H](CC(C)C)C(=O)O; Morpholide = C1CN(*)CCO1; NMeA = CN[C@@H](C)C(=O)O; Ac5c = NC1(C(=O)O)CCCC1; Aze = O=C(O)[C@@H]1CCN1; Sar = CNCC(=O)O

What was measured:
[1] = target: GDP-bound KRAS wild-type protein (Homo sapiens, UniProt P01116); test: Binding to KRAS by surface plasmon resonance (SPR), Single Cycle Kinetics; details: SPR Single Cycle Kinetics, GDP-bound KRAS wild-type protein, 1:1 binding model; read-out: KRAS KD
[2] = target: GDP-bound HRAS wild-type protein (Homo sapiens, UniProt P01112); test: Binding to HRAS by surface plasmon resonance (SPR), Single Cycle Kinetics; details: SPR, GDP-bound HRAS wild-type protein vs GDP-bound KRAS wild-type protein
[3] = target: GDP-bound NRAS wild-type protein (Homo sapiens, UniProt P01111); test: Binding to NRAS by surface plasmon resonance (SPR), Single Cycle Kinetics; details: SPR, GDP-bound NRAS wild-type protein vs GDP-bound KRAS wild-type protein
GDP-bound NRAS wild-type protein, sequence (P01111 whole entry): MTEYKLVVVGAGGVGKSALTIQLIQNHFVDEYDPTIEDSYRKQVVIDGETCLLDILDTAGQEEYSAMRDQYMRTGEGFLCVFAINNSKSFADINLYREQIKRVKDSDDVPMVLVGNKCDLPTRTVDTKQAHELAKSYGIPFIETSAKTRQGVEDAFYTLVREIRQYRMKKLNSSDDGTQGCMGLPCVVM

GDP-bound KRAS wild-type protein, sequence (P01116 whole entry): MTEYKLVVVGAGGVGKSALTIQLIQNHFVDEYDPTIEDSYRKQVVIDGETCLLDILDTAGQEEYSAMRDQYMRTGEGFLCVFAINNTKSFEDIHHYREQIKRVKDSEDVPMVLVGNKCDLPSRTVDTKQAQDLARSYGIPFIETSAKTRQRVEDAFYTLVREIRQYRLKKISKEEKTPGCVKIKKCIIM
GDP-bound HRAS wild-type protein, sequence (P01112 whole entry): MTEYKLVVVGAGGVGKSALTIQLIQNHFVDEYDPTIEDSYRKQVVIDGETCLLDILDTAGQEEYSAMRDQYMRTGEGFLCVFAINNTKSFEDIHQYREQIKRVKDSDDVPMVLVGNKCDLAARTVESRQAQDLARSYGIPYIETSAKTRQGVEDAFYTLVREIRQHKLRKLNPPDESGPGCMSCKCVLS

| Kd [1] [pM] | SMILES | HRAS/KRAS (ratio of KD value for HRAS to KD value for KRAS) [2] | NRAS/KRAS (ratio of KD value for NRAS to KD value for KRAS) [3] |
| --- | --- | --- | --- |
| 1100 | CC[C@H](C)[C@@H]1NC(=O)[C@H](CC(C)C)N(C)C(=O)C[C@@H](C(=O)N2CCOCC2)N(C)C(=O)[C@H](C2CCCC2)N(C)C(=O)C2(CCCC2)NC(=O)[C@@H]2CCCN2C(=O)[C@H](CCc2ccc(C(F)(F)F)c(Cl)c2)NC(=O)CN(C)C(=O)[C@H](Cc2ccc(C)cc2)N(CC2CCC2)C(=O)[C@@H]2CCN2C(=O)[C@H](C)N(C)C1=O [PP0083] ([NMeL]I[NMeA][Aze][X42][Sar][hPhe(3-Cl-4-CF3)]P[Ac5c][NMeGly(cPent)][NMeD]-Morpholide; lactam N-11) | – | – |
| 120 | C=CCN1C(=O)[C@@H]2CCN2C(=O)[C@H](C)N(C)C(=O)[C@H]([C@@H](C)CC)NC(=O)[C@H](CC(C)C)N(C)C(=O)C[C@@H](C(=O)N2CCOCC2)N(C)C(=O)[C@H](C2CCCC2)N(C)C(=O)C2(CCCC2)NC(=O)[C@@H]2CCCN2C(=O)[C@H](CCc2ccc(C(F)(F)F)c(Cl)c2)NC(=O)CN(C)C(=O)[C@@H]1Cc1ccc(C)cc1 [PP0088] ([NMeL]I[NMeA][Aze][X10][Sar][hPhe(3-Cl-4-CF3)]P[Ac5c][NMeGly(cPent)][NMeD]-Morpholide; lactam N-11) | – | – |
| 83 | C#CCN1C(=O)[C@@H]2CCN2C(=O)[C@H](C)N(C)C(=O)[C@H]([C@@H](C)CC)NC(=O)[C@H](CC(C)C)N(C)C(=O)C[C@@H](C(=O)N2CCOCC2)N(C)C(=O)[C@H](C2CCCC2)N(C)C(=O)C2(CCCC2)NC(=O)[C@@H]2CCCN2C(=O)[C@H](CCc2ccc(C(F)(F)F)c(Cl)c2)NC(=O)CN(C)C(=O)[C@@H]1Cc1ccc(C)cc1 [PP0090] ([NMeL]I[NMeA][Aze][X53][Sar][hPhe(3-Cl-4-CF3)]P[Ac5c][NMeGly(cPent)][NMeD]-Morpholide; lactam N-11) | – | – |
| 230 | CC[C@H](C)[C@@H]1NC(=O)[C@H](CC(C)C)N(C)C(=O)C[C@@H](C(=O)N2CCOCC2)N(C)C(=O)[C@H](C2CCCC2)N(C)C(=O)C2(CCCC2)NC(=O)[C@@H]2CCCN2C(=O)[C@H](CCc2ccc(C(F)(F)F)c(Cl)c2)NC(=O)CN(C)C(=O)[C@H](Cc2ccc(C)cc2)N(CCC(C)C)C(=O)CN(C)C(=O)CN(C)C1=O [PP0098] ([NMeL]I[Sar][Sar][X15][Sar][hPhe(3-Cl-4-CF3)]P[Ac5c][NMeGly(cPent)][NMeD]-Morpholide; lactam N-11) | – | – |
| 1300 | CCCN1C(=O)[C@@H]2CCN2C(=O)[C@H](C)N(C)C(=O)[C@H]([C@@H](C)CC)NC(=O)[C@H](CC(C)C)N(C)C(=O)C[C@@H](C(=O)N2CCOCC2)N(C)C(=O)[C@H](C2CCCC2)N(C)C(=O)C2(CCCC2)NC(=O)[C@@H]2CCCN2C(=O)[C@H](CCc2ccc(C(F)(F)F)c(Cl)c2)NC(=O)CN(C)C(=O)[C@@H]1Cc1ccc(OC(F)(F)F)cc1 [PP0136] ([NMeL]I[NMeA][Aze][X52][Sar][hPhe(3-Cl-4-CF3)]P[Ac5c][NMeGly(cPent)][NMeD]-Morpholide; lactam N-11) | – | – |
| 470 | CCCN1C(=O)CN(C)C(=O)CN(C)C(=O)[C@H]([C@@H](C)CC)NC(=O)[C@H](CC(C)C)N(C)C(=O)C[C@@H](C(=O)N2CCOCC2)N(C)C(=O)[C@H](C2CCCC2)N(C)C(=O)C2(CCCC2)NC(=O)[C@@H]2CCCN2C(=O)[C@H](CCc2ccc(C(F)(F)F)c(Cl)c2)NC(=O)CN(C)C(=O)[C@@H]1Cc1ccc(OC(F)(F)F)cc1 [PP0137] ([NMeL]I[Sar][Sar][X52][Sar][hPhe(3-Cl-4-CF3)]P[Ac5c][NMeGly(cPent)][NMeD]-Morpholide; lactam N-11) | – | – |
| – | CCC[C@H]1C(=O)N[C@@H]([C@@H](C)CC)C(=O)N(C)CC(=O)N(C)[C@H]2C/C=C\CCN(C2=O)[C@@H](Cc2ccc(C)cc2)C(=O)N(C)CC(=O)N[C@@H](CCc2ccc(C(F)(F)F)c(OC)c2)C(=O)N2C[C@H](OCC)C[C@H]2C(=O)NC2(CC(C)(C)C2)C(=O)N(C)[C@@H](CC(C)C)C(=O)N(C)[C@H](C(=O)N(C)C)CC(=O)N1C [PP3008] | A (a compound having 10 or more and less than 20 is denoted as A) | A (a compound having 10 or more and less than 20 is denoted as A) |
| – | CCC[C@H]1C(=O)N[C@@H]([C@@H](C)CC)C(=O)N(C)CC(=O)N(C)[C@H]2C/C=C\CCN(C2=O)[C@@H](Cc2ccc(C)cc2)C(=O)N(C)CC(=O)N[C@@H](CCc2ccc(C(F)(F)F)c(OC)c2)C(=O)N2CC3(CC3)C[C@H]2C(=O)NC2(CC(C)(C)C2)C(=O)N(C)[C@@H](CC(C)(C)C)C(=O)N(C)[C@H](C(=O)N(C)C)CC(=O)N1C [PP3009] | A (a compound having 10 or more and less than 20 is denoted as A) | A (a compound having 10 or more and less than 20 is denoted as A) |
| – | CCC[C@H]1C(=O)N[C@@H](C2CCCC2)C(=O)N(C)CC(=O)N(C)[C@H]2C/C=C\CCN(C2=O)[C@@H](Cc2ccc(C)cc2)C(=O)N(C)CC(=O)N[C@@H](CCc2ccc(C(F)(F)F)c(OC)c2)C(=O)N2CC3(CC3)C[C@H]2C(=O)NC2(CC(C)(C)C2)C(=O)N(C)[C@@H](CC(C)(C)C)C(=O)N(C)[C@H](C(=O)N(C)C)CC(=O)N1C [PP3010] | B (a compound having 3 or more and less than 10 is denoted as B) | B (a compound having 3 or more and less than 10 is denoted as B) |
| – | CCC[C@H]1C(=O)N[C@@H](C2CCCCC2)C(=O)N(C)CC(=O)N(C)[C@H]2C/C=C\CCN(C2=O)[C@@H](Cc2ccc(C)cc2)C(=O)N(C)CC(=O)N[C@@H](CCc2ccc(C(F)(F)F)c(Cl)c2)C(=O)N2C[C@H](OCC)C[C@H]2C(=O)NC2(CC(C)(C)C2)C(=O)N(C)[C@@H](CC(C)C)C(=O)N(C)[C@H](C(=O)N(C)C)CC(=O)N1C [PP3021] | A (a compound having 10 or more and less than 20 is denoted as A) | AA (a compound having 20 or more is denoted as AA) |
| – | CCC[C@H]1C(=O)N[C@@H](C2CCOCC2)C(=O)N(C)CC(=O)N(C)[C@H]2C/C=C\CCN(C2=O)[C@@H](Cc2ccc(C)cc2)C(=O)N(C)CC(=O)N[C@@H](CCc2ccc(C(F)(F)F)c(Cl)c2)C(=O)N2C[C@H](OCC)C[C@H]2C(=O)NC2(CC(C)(C)C2)C(=O)N(C)[C@@H](CC(C)(C)C)C(=O)N(C)[C@H](C(=O)N(C)C)CC(=O)N1C [PP3026] | A (a compound having 10 or more and less than 20 is denoted as A) | A (a compound having 10 or more and less than 20 is denoted as A) |
| – | CCO[C@@H]1C[C@H]2C(=O)NC3(CC(C)(C)C3)C(=O)N(C)[C@@H](C3CCCC3)C(=O)N(C)[C@H](C(=O)N(C)CC)CC(=O)N(C)[C@H]3C/C=C/c4ccc(cc4)C[C@@H](C(=O)N(C)CC(=O)N[C@@H](CCc4ccc(Cl)c(Cl)c4)C(=O)N2C1)N1CC/C=C\C[C@@H](C1=O)N(C)C(=O)CN(C)C(=O)[C@H]([C@@H](C)CC)NC3=O [PP3056] | A (a compound having 10 or more and less than 20 is denoted as A) | A (a compound having 10 or more and less than 20 is denoted as A) |
| – | CCO[C@@H]1C[C@H]2C(=O)NC3(CC(C)(C)C3)C(=O)N(C)[C@@H](C3CCCC3)C(=O)N(C)[C@H](C(=O)N(C)C)CC(=O)N(C)[C@H]3CCCCC/C=C/c4ccc(cc4)C[C@@H](C(=O)N(C)CC(=O)N[C@@H](CCc4ccc(Cl)c(Cl)c4)C(=O)N2C1)N1CC/C=C\C[C@@H](C1=O)N(C)C(=O)CN(C)C(=O)[C@H]([C@@H](C)CC)NC3=O [PP3057] | B (a compound having 3 or more and less than 10 is denoted as B) | A (a compound having 10 or more and less than 20 is denoted as A) |
